As usually defined, the IC50 is the concentration at which inhibition is half-maximal. Lower therefore signals greater potency in that assay.

Experimental findings from BindingDB's records for doi:10.1016/j.bioorg.2010.11.002 (University of Catania, 2011) are described below.

For one assay, the target named is Stromelysin-1 (Homo sapiens, UniProt P08254). Put plainly: Fluorimetric Assay. The settings on record: pH 7; 25 °C.
The next assay concerns the target Collagenase 3 (Homo sapiens, UniProt P45452). Put plainly: Fluorimetric Assay. As to conditions: pH 7; 25 °C.

Stromelysin-1, sequence (P08254 whole entry): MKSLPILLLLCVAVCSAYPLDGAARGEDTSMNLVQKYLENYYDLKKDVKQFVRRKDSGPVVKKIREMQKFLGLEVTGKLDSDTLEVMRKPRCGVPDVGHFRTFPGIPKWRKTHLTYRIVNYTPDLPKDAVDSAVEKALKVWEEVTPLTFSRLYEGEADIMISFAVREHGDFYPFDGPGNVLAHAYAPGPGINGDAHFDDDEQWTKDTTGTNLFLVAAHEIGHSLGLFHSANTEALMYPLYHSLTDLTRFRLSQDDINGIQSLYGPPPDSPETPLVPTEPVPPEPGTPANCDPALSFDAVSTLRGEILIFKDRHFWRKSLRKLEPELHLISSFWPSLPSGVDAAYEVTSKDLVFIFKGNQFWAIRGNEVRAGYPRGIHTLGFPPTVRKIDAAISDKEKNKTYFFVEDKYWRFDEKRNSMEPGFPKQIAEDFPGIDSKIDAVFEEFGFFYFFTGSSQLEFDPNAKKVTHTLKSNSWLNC

In turn, `Oc1csc(Nc2nc3ccccc3s2)n1` [2-(benzo[d]-thiazol-2-ylimino)-thiazolidin-4-one, 1a] gave a 50% inhibitory concentration (IC50) on Stromelysin-1 of 36.7 µM. Regarding `O=C1N/C(=N/c2nsc3ccccc23)S/C1=C/c1ccccc1` [2-(benzo[d]isothiazol-3-ylimino)-5-benzylidenethiazolidin-4-one, 2b], it took 32 µM to reach half-maximal inhibition on Collagenase 3 (IC50).
